Measured values taken from patent publication US7259004B1, “Endophytic streptomycetes from higher plants with biological activity” (Montana State University, priority 2002, dated 2007).

Legend:
[1] = system: Bacillus anthracis K8902; format: cell-based; details: 10 micrograms per disk; ciprofloxacin 5, vancomycin 30 micrograms per disk; 35° C.
[2] = system: Cryptococcus neoformans; assay: microbroth dilution MIC
[3] = system: Staphylococcus aureus ATCC 33591 (MRSA); assay: microbroth dilution MIC; format: cell-based
[4] = system: brine shrimp; assay: brine shrimp assays; details: preliminary assays
[5] = system: E. faecalis 29212; assay: microbroth dilution MIC; format: cell-based, Enterococcus faecalis
[6] = system: Enterococcus faecalis ATCC 51299; assay: disk diffusion assay; format: cell-based; details: 10 micrograms per disk; ciprofloxacin 5, vancomycin 30 micrograms per disk; 35° C.
[7] = system: S. epidermis 12228; assay: microbroth dilution MIC; format: cell-based, Staphylococcus epidermidis
[8] = system: M. tuberculosis H37Rv (ATCC 25618) (drug sensitive); assay: IC50 in Mycobacteria 7H11 agar; format: cell-based, Mycobacterium tuberculosis; details: 7H11 agar with 10% OADC
[9] = system: Cryptococcus neoformans ATCC 32045; assay: disk diffusion assay; format: cell-based; details: 10 micrograms per disk; 35° C.
[10] = system: Candida parasilosis ATCC 22019; assay: disk diffusion assay; format: cell-based, Candida parapsilosis; details: 10 micrograms per disk; 35° C. Further: key: R = resistant.
[11] = system: Escherichia coli ATCC 25922; assay: disk diffusion assay; format: cell-based; details: 10 micrograms per disk; penicillin G 10 units per disk; 35° C. Further: key: R = resistant.
[12] = system: Candida tropicalis ATCC 750; assay: disk diffusion assay; format: cell-based; details: 10 micrograms per disk; 35° C. Further: key: R = resistant.
[13] = system: Acinetobacter sp. ATCC 49137; assay: disk diffusion assay; format: cell-based; details: 10 micrograms per disk; ciprofloxacin 5, vancomycin 30 micrograms per disk; grown at 30° C.
[14] = system: S. epidermis ATCC 12228; assay: disk diffusion assay; format: cell-based, Staphylococcus epidermidis; details: 10 micrograms per disk; 35° C.
[15] = system: Candida parasdosis ATCC 90018; assay: disk diffusion assay; format: cell-based, Candida parapsilosis; details: 10 micrograms per disk; 35° C. Further: key: R = resistant.
[16] = system: Enterococcus faecalis ATCC 29212; assay: disk diffusion assay; format: cell-based; details: 10 micrograms per disk; ciprofloxacin 5, vancomycin 30 micrograms per disk; 35° C.
[17] = system: Streptococcus pneumoniae 49619; assay: microbroth dilution MIC; format: cell-based
[18] = system: Neisseria gonnorhea ATCC 49226; assay: disk diffusion assay; format: cell-based; details: 10 micrograms per disk; ciprofloxacin 5, vancomycin 30 micrograms per disk; GC agar with 1% growth supplement with 5% CO2
[19] = system: Staphylococccus simulans 11631; assay: microbroth dilution MIC; format: cell-based, Staphylococcus simulans
[20] = system: Candida albicans ATCC 90028; assay: disk diffusion assay; format: cell-based; details: 10 micrograms per disk; 35° C. Further: key: R = resistant.
[21] = system: Bacillus subtilis; assay: microbroth dilution MIC
[22] = system: Staphylococccus aureus 27734; assay: microbroth dilution MIC; format: cell-based, Staphylococcus aureus
[23] = system: Saccharomyces cerevisiae ATCC 9763; assay: disk diffusion assay; format: cell-based; details: 10 micrograms per disk; 35° C. Further: key: R = resistant.
[24] = system: Vibrio fischeri PIC 345; assay: disk diffusion assay; format: cell-based; details: 10 micrograms per disk; ciprofloxacin 5, vancomycin 30 micrograms per disk; 35° C.
[25] = system: Listeria monocytogenes 19114; assay: microbroth dilution MIC; format: cell-based
[26] = system: Candida glabrata ATCC 2001; assay: disk diffusion assay; format: cell-based; details: 10 micrograms per disk; 35° C. Further: key: R = resistant.
[27] = system: Enterococcus faecalis ATCC 51299 (VRE); assay: microbroth dilution MIC; format: cell-based
[28] = system: S. maltophilia ATCC 13637; assay: disk diffusion assay; format: cell-based, Stenotrophomas maltophilia; details: 10 micrograms per disk; 35° C.
[29] = system: Pseudomonas aeruginosa ATCC 27853; assay: disk diffusion assay; format: cell-based; details: 10 micrograms per disk; ciprofloxacin 5, vancomycin 30 micrograms per disk; 35° C. Further: key: R = resistant.
[30] = system: Candida albicans ATCC 24433; assay: disk diffusion assay; format: cell-based; details: 10 micrograms per disk; 35° C. Further: key: R = resistant.
[31] = system: B. subtilis 1A757; assay: microbe, parasite or virus in culture; format: cell-based, Bacillus subtilis
[32] = system: Listeria monocytogenes 19115; assay: microbroth dilution MIC; format: cell-based
[33] = system: E. faecium 49624; assay: microbroth dilution MIC; format: cell-based, Enterococcus faecium
[34] = system: Aspergillus fumigatus; assay: microbroth dilution MIC
[35] = system: Streptococcus pneumoniae 700676; assay: microbroth dilution MIC
[36] = system: Streptococcus pneumoniae ATCC 49619; assay: disk diffusion assay; format: cell-based; details: 10 micrograms per disk; ciprofloxacin 5, vancomycin 30 micrograms per disk; MHA with 5% dsb. and 5% CO2
[37] = system: S. aureus 29213; assay: microbroth dilution MIC; format: cell-based, Staphylococcus aureus
[38] = system: Enterococcus faecium ATCC 49624; assay: disk diffusion assay; format: cell-based; details: 10 micrograms per disk; ciprofloxacin 5, vancomycin 30 micrograms per disk; 35° C.

munumbicin B
diameter of the zone of inhibition, Bacillus anthracis K8902 [1]: 18 mm | MIC Cryptococcus neoformans [2]: 10 micrograms/ml | MIC Staphylococcus aureus ATCC 33591 ([3]; methicillin resistant strain, first listing in Table 4): 2.5 micrograms/ml | MIC MRSA 33591 ([3]; second listing in Table 4): 0.5 micrograms/ml | LC50 brine shrimp [4]: 8.2 micrograms/ml | MIC E. faecalis 29212 [5]: 0.25 micrograms/ml | diameter of the zone of inhibition, Enterococcus faecalis ATCC 51299 [6]: 23 mm | MIC S. epidermis 12228 [7]: 1 micrograms/ml | IC50 M. tuberculosis H37Rv (ATCC 25618) (drug sensitive) [8]: 46 micrograms/ml | diameter of the zone of inhibition, Cryptococcus neoformans ATCC 32045 [9]: 12 mm | diameter of the zone of inhibition, Candida parasilosis ATCC 22019 [10]: R | diameter of the zone of inhibition, Escherichia coli ATCC 25922 [11]: R | diameter of the zone of inhibition, Candida tropicalis ATCC 750 [12]: R | diameter of the zone of inhibition, Acinetobacter sp. ATCC 49137 [13]: R | diameter of the zone of inhibition, S. epidermis ATCC 12228 [14]: 21 mm | diameter of the zone of inhibition, Candida parasdosis ATCC 90018 [15]: R | diameter of the zone of inhibition, Enterococcus faecalis ATCC 29212 [16]: 18 mm | MIC Streptococcus pneumoniae 49619 [17]: 0.5 micrograms/ml | diameter of the zone of inhibition, Neisseria gonnorhea ATCC 49226 [18]: 14 mm | MIC Staphylococccus simulans 11631 [19]: 1 micrograms/ml | diameter of the zone of inhibition, Candida albicans ATCC 90028 [20]: R | MIC Bacillus subtilis ([21]; first listing in Table 4): 8 micrograms/ml | MIC Bacillus subtilis ([21]; second listing in Table 4): 2 micrograms/ml | MIC Staphylococccus aureus 27734 [22]: 0.5 micrograms/ml | diameter of the zone of inhibition, Saccharomyces cerevisiae ATCC 9763 [23]: R | diameter of the zone of inhibition, Vibrio fischeri PIC 345 [24]: 16 mm | MIC Listeria monocytogenes 19114 [25]: 4 micrograms/ml | diameter of the zone of inhibition, Candida glabrata ATCC 2001 [26]: R | MIC Enterococcus faecalis ATCC 51299 ([27]; resistant to vancomycin, first listing in Table 4): 12.5 micrograms/ml | MIC E. faecalis 51299 ([27]; second listing in Table 4): 8 micrograms/ml | MIC E. faecalis VRE 51299 ([27]; third listing in Table 4): 0.5 micrograms/ml | diameter of the zone of inhibition, S. maltophilia ATCC 13637 [28]: 9 mm | diameter of the zone of inhibition, Pseudomonas aeruginosa ATCC 27853 [29]: R | diameter of the zone of inhibition, Candida albicans ATCC 24433 [30]: R | increase of MICs when DNA was added ([31]; Bacillus subtilis and Staphylococcus aureus, 20 micrograms per well sheared salmon sperm DNA): affected | MIC B. subtilis 1A757 ([31]; DNA +, 20 micrograms per well of sheared salmon sperm DNA): >32 micrograms/ml | 1×MIC against Bacillus subtilis ([31]; concentration used in macromolecular synthesis assay): 2 micrograms/ml | MIC Listeria monocytogenes 19115 [32]: 4 micrograms/ml | MIC E. faecium 49624 [33]: 0.5 micrograms/ml | MIC Aspergillus fumigatus [34]: 20 micrograms/ml | MIC Streptococcus pneumoniae 700676 [35]: 0.5 micrograms/ml | diameter of the zone of inhibition, Streptococcus pneumoniae ATCC 49619 [36]: 17 mm | MIC S. aureus 29213 [37]: 0.5 micrograms/ml | diameter of the zone of inhibition, Enterococcus faecium ATCC 49624 [38]: 21 mm
